According to patent US10487117B2, “Antimicrobial peptide for nosocomial infections” (priority 2015, dated 2019):
Residues, ends and D or L forms follow the SMILES beside them.

Experiments:
[1] = system: established P. aeruginosa biofilms; test: DiSC3(5) membrane depolarization assay on biofilm; assay type: cell-based, Pseudomonas aeruginosa; settings: maximum percentage at final incubation time, 10% Triton X-100 reference
Method: Membrane depolarization was followed using the method described earlier (Torrent M. et al. 2008). Briefly, bacterial cells were grown at 37° C. to an OD600=0.2, centrifuged at 5000×g for 7 min, washed with 5 mM Hepes at pH 7.2 containing 20 mM glucose, and resuspended in 5 mM Hepes-KOH, 20 mM glucose, and 100 mM KCl at pH 7.2 to an OD600=0.05 and 200 μl were transferred to a microtiter plate for planktonic assays. For biofilm assay, 24 h formed P. aeruginosa biofilm in a 96-well microtiter plate were washed three times with sterile PBS. Afterwards P. aeruginosa biofilms were washed with 5 mM Hepes at pH 7.2 containing 20 mM glucose, and rinsed in 5 mM Hepes-KOH, 20 mM glucose, and 100 mM KCl at pH 7.2. In both cases, DiSC3(5) was added to a final concentration of 0.4 μM and changes in the fluorescence were continuously recorded after addition of peptides at 10 μM in a Victor3 plate reader. A maximum reference value for total depolarization is calculated for Triton X-100 at 10%. Alternatively, changes in the fluorescence were continuously recorded after addition of a serially diluted protein/peptides from 50 to 0.1 μM. The peptide concentration required to achieve half of total and total membrane depolarization after 40 min incubation time was estimated from nonlinear regression analysis as previously described (Torrent M. et al. 2010)
Thereupon, the antimicrobial mechanism of action of the RNase 3 derived peptide on P. aeruginosa biofilms was further characterized with the depolarization and permeabilization assays. As applied for the P. aeruginosa planktonic culture, the fluorescent DisC3(5) assay was also used here in order to monitor the depolarization activity of the studied protein and peptides against established biofilms. Therefore, we have measured the half depolarization action (ED50), and the total depolarization activity expressed as a percentage (Table 7). […] Similar results were obtained for the Sytox Green permeabilization assay, where the total permeabilization effect was hindered for all the AMPs tested, and between two to ten times higher concentrations were required to achieve half of the biofilm cell permeabilizing effect in comparison to the planktonic cells.

[2] = system: pre-established P. aeruginosa biofilm; test: Biofilm cell mortality, BacTiter-Glo luminescent assay; assay type: cell-based, Pseudomonas aeruginosa; settings: 24 h formed biofilm; 4 h at 37° C.; 10% Triton X-100 as maximum reference; N.D. = not detected at 50 μM

How did the “Depolarization Mean % ± SEM” value [1] turn out when `CC[C@H](C)[C@H](NC(=O)CNC(=O)[C@@H](NC(=O)[C@H](CCCCN)NC(=O)[C@H](CCCCN)NC(=O)[C@H](Cc1ccccc1)NC(=O)[C@H](CC(C)C)NC(=O)[C@H](CCCCN)NC(=O)[C@H](Cc1c[nH]c2ccccc12)NC(=O)[C@@H](N)CCCCN)[C@@H](C)CC)C(=O)NCC(=O)N[C@@H](C)C(=O)N[C@H](C(=O)N[C@@H](CC(C)C)C(=O)N[C@@H](CCCCN)C(=O)N[C@H](C(=O)N[C@@H](CC(C)C)C(=O)N[C@H](C(=O)N[C@H](C(=O)NCC(=O)N[C@@H](CC(C)C)C(=O)N1CCC[C@H]1C(=O)N[C@@H](C)C(=O)N[C@@H](CC(C)C)C(=O)N[C@H](C(=O)N[C@@H](CO)C(N)=O)[C@@H](C)CC)[C@@H](C)O)[C@@H](C)O)C(C)C)C(C)C` [CA-M] was run?
Its value is 39.09 ± 2.46%.

For `CC[C@H](C)[C@H](NC(=O)[C@H](CCC(N)=O)NC(=O)CN)C(=O)N[C@H](C(=O)N[C@@H](CC(N)=O)C(=O)N[C@@H](CC(C)C)C(=O)N[C@@H](CCCCN)C(=O)N[C@@H](C)C(=O)N[C@@H](CO)C(=O)N[C@@H](CC(C)C)C(=O)N[C@@H](CC(=O)O)C(=O)N[C@@H](CC(C)C)C(=O)N[C@@H](CC(C)C)C(N)=O)[C@@H](C)CC` [GL-13, GQIINLKASLDLL-NH2] (H-GQIINLKASLDLL-NH2), which “Biofilm cell mortality (%max)” value [2] is on record?
Its value is “unable to perform any cell mortality”.

With `CC[C@H](C)[C@H](NC(=O)[C@H](CCCCN)NC(=O)[C@H](CCC(=O)O)NC(=O)[C@H](CCCCN)NC(=O)[C@H](CO)NC(=O)[C@H](CCCCN)NC(=O)[C@H](CCCNC(=N)N)NC(=O)[C@H](Cc1ccccc1)NC(=O)[C@H](Cc1ccccc1)NC(=O)[C@H](CC(=O)O)NC(=O)CNC(=O)[C@H](CC(C)C)NC(=O)[C@@H](N)CC(C)C)C(=O)NCC(=O)N[C@@H](CCCCN)C(=O)N[C@@H](CCC(=O)O)C(=O)N[C@@H](Cc1ccccc1)C(=O)N[C@@H](CCCCN)C(=O)N[C@@H](CCCNC(=N)N)C(=O)N[C@H](C(=O)N[C@H](C(=O)N[C@@H](CCC(N)=O)C(=O)N[C@@H](CCCNC(=N)N)C(=O)N[C@H](C(=O)N[C@@H](CCCCN)C(=O)N[C@@H](CC(=O)O)C(=O)N[C@@H](Cc1ccccc1)C(=O)N[C@@H](CC(C)C)C(=O)N[C@@H](CCCNC(=N)N)C(=O)N[C@@H](CC(N)=O)C(=O)N[C@@H](CC(C)C)C(=O)N[C@H](C(=O)N1CCC[C@H]1C(=O)N[C@@H](CCCNC(=N)N)C(=O)N[C@H](C(=O)N[C@@H](CCC(=O)O)C(=O)N[C@@H](CO)C(N)=O)[C@@H](C)O)C(C)C)[C@@H](C)CC)C(C)C)[C@@H](C)CC` [LL-37] as the compound, how does the “Depolarization Mean % ± SEM” value [1] read?
Its value is 31.85 ± 1.15%.
